# Tests used:
# IDH1R132C_H315D cis = biological target: T1, IDH1R132C_H315D cis (Homo sapiens, UniProt O75874, H315D/R132C); experiment: 2-HG cell-based inhibition assay, U87MG IDH1R132C_H315D cis; conditions: Cell line construct U87MG IDH1R132C_H315D cis; 2-HG by LC-MS
# T1 construct: expressed in transfected cells; host or cells: U-87 MG (ATCC HTB-14)
# Experimental: (§1) Compounds and Formulation. […] DMSO preps are further diluted with cell culture media prior to addition in the assay.
# (§2) Cell lines. U-87 MG cells (ATCC, HTB-14) are cultured and assayed in MEM (Gibco, 11095) with 2 mM GlutaMAX (Gibco, 35050), 1 mM Pyruvate (Gibco, 11360), 0.1 mM NEAA ((Non-essential amino acid) Gibco, 11140) and 10% dialyzed FBS (Fetal bovine serum) (Gibco, 26400). Ba/F3 cells (DSMZ, ACC 300) are cultured and assayed in RPMI 1640 (Gibco, 22400) with 10% heat inactivated FBS (Gibco, 10082-147) and 10 ng/ml mouse IL3 (R&D systems, 403-ML-025).
# (§3) Cell-based inhibition assays. Cell-based assays are performed by measuring 2-HG in either U-87 MG cells or Ba/F3 cells in which IDH mutations are expressed.
# (§4) DNA constructs encoding IDH1 mutations are introduced into U-87 MG cells using transfection (Promega FuGENE HD, E2311) or lentiviral transduction, and the IDH-mutant expressing cell lines are selected using blasticidin (5 μg/ml) or puromycin (1 μg/ml). […]
# (§5) LC-MS metabolite analysis of conditioned media and cell lysates. The effect of inhibitors on the concentrations of 2-HG are determined by liquid chromatography-mass spectrometry (LC-MS) analysis of cell lysates or conditioned media using either a derivatization method or an ion-pairing method as described below. […]
# IDH1R132H_R119P cis = biological target: T2, IDH1R132H_R119P cis (Homo sapiens, UniProt O75874, R119P/R132H); experiment: 2-HG cell-based inhibition assay, U87MG IDH1R132H_R119P cis; conditions: Cell line construct U87MG IDH1R132H_R119P cis; 2-HG by LC-MS
# T2 construct: expressed in transfected cells; host or cells: U-87 MG (ATCC HTB-14)
# Experimental: as §1, §2, §3, §4, §5
# R132C_S280F mutant IDH1 [1] = biological target: T3, R132C_S280F mutant IDH1 (Homo sapiens, UniProt O75874, R132C/S280F); experiment: 2-HG cell-based inhibition assay, U87MG R132C_S280F; conditions: Cell line construct U87MG R132C_S280F; 2-HG by LC-MS
# T3 construct: myc; expressed in transfected cells; host or cells: Ba/F3 (DSMZ ACC 300), stably transfected
# Experimental: as §1, §2, §3, §4, §5
# IDH1R132C_D279N cis = biological target: T4, IDH1R132C_D279N cis (Homo sapiens, UniProt O75874, D279N/R132C); experiment: 2-HG cell-based inhibition assay, U87MG IDH1R132C_D279N cis; conditions: Cell line construct U87MG IDH1R132C_D279N cis; 2-HG by LC-MS
# T4 construct: expressed in transfected cells; host or cells: U-87 MG (ATCC HTB-14)
# Experimental: as §1, §2, §3, §4, §5
# IDH1R132H_H315D cis = biological target: T5, IDH1R132H_H315D cis (Homo sapiens, UniProt O75874, H315D/R132H); experiment: 2-HG cell-based inhibition assay, U87MG IDH1R132H_H315D cis; conditions: Cell line construct U87MG IDH1R132H_H315D cis; 2-HG by LC-MS
# T5 construct: expressed in transfected cells; host or cells: U-87 MG (ATCC HTB-14)
# Experimental: as §1, §2, §3, §4, §5
# IDH1R132C_R119P cis = biological target: T6, IDH1R132C_R119P cis (Homo sapiens, UniProt O75874, R119P/R132C); experiment: 2-HG cell-based inhibition assay, U87MG IDH1R132C_R119P cis; conditions: Cell line construct U87MG IDH1R132C_R119P cis; 2-HG by LC-MS
# T6 construct: expressed in transfected cells; host or cells: U-87 MG (ATCC HTB-14)
# Experimental: as §1, §2, §3, §4, §5
# R132H_S280F mutant IDH1 [2] = biological target: T7, R132H_S280F mutant IDH1 (Homo sapiens, UniProt O75874, R132H/S280F); experiment: 2-HG cell-based inhibition assay, U87MG R132H_S280F; conditions: Cell line construct U87MG R132H_S280F; 2-HG by LC-MS
# T7 construct: myc; expressed in transfected cells; host or cells: Ba/F3 (DSMZ ACC 300), stably transfected
# Experimental: as §1, §2, §3, §4, §5
# IDH1R132L_G131A cis = biological target: T8, IDH1R132L_G131A cis (Homo sapiens, UniProt O75874, G131A/R132L); experiment: 2-HG cell-based inhibition assay, U87MG IDH1R132L_G131A cis; conditions: Cell line construct U87MG IDH1R132L_G131A cis; 2-HG by LC-MS
# T8 construct: expressed in transfected cells; host or cells: U-87 MG (ATCC HTB-14)
# Experimental: as §1, §2, §3, §4, §5
# IDH1R132H_G131A cis = biological target: T9, IDH1R132H_G131A cis (Homo sapiens, UniProt O75874, G131A/R132H); experiment: 2-HG cell-based inhibition assay, U87MG IDH1R132H_G131A cis; conditions: Cell line construct U87MG IDH1R132H_G131A cis; 2-HG by LC-MS
# T9 construct: expressed in transfected cells; host or cells: U-87 MG (ATCC HTB-14)
# Experimental: as §1, §2, §3, §4, §5
# R132H_S280F mutant IDH1 [3] = biological target: T7, R132H_S280F mutant IDH1; experiment: 2-HG cell-based inhibition assay, Ba/F3 R132H_S280F; conditions: Cell line construct Ba/F3 R132H_S280F; 2-HG in conditioned media by LC-MS
# R132H mutant IDH1 [4] = biological target: T10, R132H mutant IDH1 (Homo sapiens, UniProt O75874, R132H); experiment: 2-HG cell-based inhibition assay, U87MG R132H; conditions: Cell line construct U87MG R132H; 2-HG by LC-MS
# T10 construct: myc; expressed in transfected cells; host or cells: Ba/F3 (DSMZ ACC 300), stably transfected
# Experimental: as §1, §2, §3, §4, §5
# IDH1R132L_G289D cis = biological target: T11, IDH1R132L_G289D cis (Homo sapiens, UniProt O75874, G289D/R132L); experiment: 2-HG cell-based inhibition assay, U87MG IDH1R132L_G289D cis; conditions: Cell line construct U87MG IDH1R132L_G289D cis; 2-HG by LC-MS
# T11 construct: expressed in transfected cells; host or cells: U-87 MG (ATCC HTB-14)
# Experimental: as §1, §2, §3, §4, §5
# R132C_S280F mutant IDH1 [5] = biological target: T3, R132C_S280F mutant IDH1; experiment: 2-HG cell-based inhibition assay, Ba/F3 R132C_S280F; conditions: Cell line construct Ba/F3 R132C_S280F; 2-HG in conditioned media by LC-MS
# IDH1R132L_D279N cis = biological target: T12, IDH1R132L_D279N cis (Homo sapiens, UniProt O75874, D279N/R132L); experiment: 2-HG cell-based inhibition assay, U87MG IDH1R132L_D279N cis; conditions: Cell line construct U87MG IDH1R132L_D279N cis; 2-HG by LC-MS
# T12 construct: expressed in transfected cells; host or cells: U-87 MG (ATCC HTB-14)
# Experimental: as §1, §2, §3, §4, §5
# IDH1R132C_G131A cis = biological target: T13, IDH1R132C_G131A cis (Homo sapiens, UniProt O75874, G131A/R132C); experiment: 2-HG cell-based inhibition assay, U87MG IDH1R132C_G131A cis; conditions: Cell line construct U87MG IDH1R132C_G131A cis; 2-HG by LC-MS
# T13 construct: expressed in transfected cells; host or cells: U-87 MG (ATCC HTB-14)
# Experimental: as §1, §2, §3, §4, §5
# IDH1R132L_R119P cis = biological target: T14, IDH1R132L_R119P cis (Homo sapiens, UniProt O75874, R119P/R132L); experiment: 2-HG cell-based inhibition assay, U87MG IDH1R132L_R119P cis; conditions: Cell line construct U87MG IDH1R132L_R119P cis; 2-HG by LC-MS
# T14 construct: expressed in transfected cells; host or cells: U-87 MG (ATCC HTB-14)
# Experimental: as §1, §2, §3, §4, §5
# R132H mutant IDH1 [6] = biological target: T10, R132H mutant IDH1; experiment: 2-HG cell-based inhibition assay, Ba/F3 R132H; conditions: Cell line construct Ba/F3 R132H; 2-HG in conditioned media by LC-MS
# Experimental: as §1, §3
# Ba/F3 cells are transfected with DNA constructs encoding IDH1R132H-myc, IDH1R132H_S280E-myc, or IDH1R132C_S280E-myc constructs using NEON Transfection system (Life Technologies, MPK10025) and isolated using Puromycin (2 μg/mL) or Blasticidin (10 μg/mL). Stably transfected lines are used for inhibitor assays. […] Cells are treated with serial dilutions of the desired compounds in standard growth media. Plates are incubated in a mammalian cell culture incubator (humidified, 37° C., 5% CO2) for the desired time (72 or 96 hours). Following the incubation period, conditioned media from each well is collected for 2-HG analysis by LC-MS.
# LC-MS metabolite analysis of conditioned media and cell lysates. The effect of inhibitors on the concentrations of 2-HG are determined by liquid chromatography-mass spectrometry (LC-MS) analysis of cell lysates or conditioned media using either a derivatization method or an ion-pairing method as described below.
# For the derivatization LC-MS method, calibration curves are prepared by spiking 2-HG and α-KG into cell culture media and cell lysis buffer respectively. […]
# IDH1R132C_G289D cis = biological target: T15, IDH1R132C_G289D cis (Homo sapiens, UniProt O75874, G289D/R132C); experiment: 2-HG cell-based inhibition assay, U87MG IDH1R132C_G289D cis; conditions: Cell line construct U87MG IDH1R132C_G289D cis; 2-HG by LC-MS
# T15 construct: expressed in transfected cells; host or cells: U-87 MG (ATCC HTB-14)
# Experimental: as §1, §2, §3, §4, §5
# IDH1R132L_S280F cis = biological target: T16, IDH1R132L_S280F cis (Homo sapiens, UniProt O75874, R132L/S280F); experiment: 2-HG cell-based inhibition assay, U87MG IDH1R132L_S280F cis; conditions: Cell line construct U87MG IDH1R132L_S280F cis; 2-HG by LC-MS
# T16 construct: expressed in transfected cells; host or cells: U-87 MG (ATCC HTB-14)
# Experimental: as §1, §2, §3, §4, §5
# IDH1R132H_D279N cis = biological target: T17, IDH1R132H_D279N cis (Homo sapiens, UniProt O75874, D279N/R132H); experiment: 2-HG cell-based inhibition assay, U87MG IDH1R132H_D279N cis; conditions: Cell line construct U87MG IDH1R132H_D279N cis; 2-HG by LC-MS
# T17 construct: expressed in transfected cells; host or cells: U-87 MG (ATCC HTB-14)
# Experimental: as §1, §2, §3, §4, §5
# IDH1R132L_H315D cis = biological target: T18, IDH1R132L_H315D cis (Homo sapiens, UniProt O75874, H315D/R132L); experiment: 2-HG cell-based inhibition assay, U87MG IDH1R132L_H315D cis; conditions: Cell line construct U87MG IDH1R132L_H315D cis; 2-HG by LC-MS
# T18 construct: expressed in transfected cells; host or cells: U-87 MG (ATCC HTB-14)
# Experimental: as §1, §2, §3, §4, §5
# T7 sequence (O75874 whole entry R132H/S280F): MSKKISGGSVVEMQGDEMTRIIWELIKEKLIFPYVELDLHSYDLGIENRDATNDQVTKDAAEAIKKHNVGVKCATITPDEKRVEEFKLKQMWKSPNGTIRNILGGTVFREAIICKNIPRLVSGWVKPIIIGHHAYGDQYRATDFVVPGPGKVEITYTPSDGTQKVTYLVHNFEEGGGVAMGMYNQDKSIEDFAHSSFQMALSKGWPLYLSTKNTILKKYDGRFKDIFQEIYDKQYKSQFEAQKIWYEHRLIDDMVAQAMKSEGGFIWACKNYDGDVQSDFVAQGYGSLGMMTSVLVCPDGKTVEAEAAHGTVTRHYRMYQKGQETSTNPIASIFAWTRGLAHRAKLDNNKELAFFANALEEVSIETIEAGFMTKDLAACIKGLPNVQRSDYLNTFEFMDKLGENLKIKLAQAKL
# T10 sequence (O75874 whole entry R132H): as the sequence (O75874 whole entry R132H/S280F) above, with F280S counted along it
# T3 sequence (O75874 whole entry R132C/S280F): as the sequence (O75874 whole entry R132H/S280F) above, with H132C counted along it
# T17 sequence (O75874 whole entry R132H/D279N): as the sequence (O75874 whole entry R132H/S280F) above, with D279N, F280S counted along it
# T12 sequence (O75874 whole entry R132L/D279N): as the sequence (O75874 whole entry R132H/S280F) above, with H132L, D279N, F280S counted along it
# T11 sequence (O75874 whole entry R132L/G289D): as the sequence (O75874 whole entry R132H/S280F) above, with H132L, F280S, G289D counted along it
# T4 sequence (O75874 whole entry R132C/D279N): as the sequence (O75874 whole entry R132H/S280F) above, with H132C, D279N, F280S counted along it
# T14 sequence (O75874 whole entry R119P/R132L): as the sequence (O75874 whole entry R132H/S280F) above, with R119P, H132L, F280S counted along it
# T8 sequence (O75874 whole entry G131A/R132L): as the sequence (O75874 whole entry R132H/S280F) above, with G131A, H132L, F280S counted along it
# T9 sequence (O75874 whole entry G131A/R132H): as the sequence (O75874 whole entry R132H/S280F) above, with G131A, F280S counted along it
# T5 sequence (O75874 whole entry R132H/H315D): as the sequence (O75874 whole entry R132H/S280F) above, with F280S, H315D counted along it
# T1 sequence (O75874 whole entry R132C/H315D): as the sequence (O75874 whole entry R132H/S280F) above, with H132C, F280S, H315D counted along it
# T15 sequence (O75874 whole entry R132C/G289D): as the sequence (O75874 whole entry R132H/S280F) above, with H132C, F280S, G289D counted along it
# T2 sequence (O75874 whole entry R119P/R132H): as the sequence (O75874 whole entry R132H/S280F) above, with R119P, F280S counted along it
# T16 sequence (O75874 whole entry R132L/S280F): as the sequence (O75874 whole entry R132H/S280F) above, with H132L counted along it
# T6 sequence (O75874 whole entry R119P/R132C): as the sequence (O75874 whole entry R132H/S280F) above, with R119P, H132C, F280S counted along it
# T18 sequence (O75874 whole entry R132L/H315D): as the sequence (O75874 whole entry R132H/S280F) above, with H132L, F280S, H315D counted along it
# T13 sequence (O75874 whole entry G131A/R132C): as the sequence (O75874 whole entry R132H/S280F) above, with G131A, H132C, F280S counted along it
structure (smiles),measurement,setting,value
"C=CC(=O)N1CCN([C@@H](CC2CC2)c2ccc([C@H](C)Nc3ncc4c(n3)N(CC)C(=O)OC4)cc2)CC1 [Compound A, 7-[[(1S)-1-[4-[(1S)-2-cyclopropyl-1-(4-prop-2-enoylpiperazin-1-yl)ethyl]phenyl]ethyl]amino]-1-ethyl-4H-pyrimido[4,5-d][1,3]oxazin-2-one]",IC50,IDH1R132C_H315D cis,1.33 nM
same,IC50,IDH1R132H_R119P cis,2.52 nM
same,IC50,R132C_S280F mutant IDH1 [1],12.5 nM
same,IC50,IDH1R132C_D279N cis,102 nM
same,IC50,IDH1R132H_H315D cis,1.49 nM
same,IC50,IDH1R132C_R119P cis,10.5 nM
same,IC50,R132H_S280F mutant IDH1 [2],2.58 nM
same,IC50,IDH1R132L_G131A cis,64.5 nM
same,IC50,IDH1R132H_G131A cis,5.89 nM
same,IC50,R132H_S280F mutant IDH1 [3],1.13 nM
same,IC50,R132H mutant IDH1 [4],0.32 nM
same,IC50,IDH1R132L_G289D cis,29.4 nM
same,IC50,R132C_S280F mutant IDH1 [5],1.53 nM
same,IC50,IDH1R132L_D279N cis,645 nM
same,IC50,IDH1R132C_G131A cis,25.6 nM
same,IC50,IDH1R132L_R119P cis,89.7 nM
same,IC50,R132H mutant IDH1 [6],0.11 nM
same,IC50,IDH1R132C_G289D cis,23.5 nM
same,IC50,IDH1R132L_S280F cis,179 nM
same,IC50,IDH1R132H_D279N cis,13.8 nM
same,IC50,IDH1R132L_H315D cis,5.07 nM

# — patent US20230071978A1, “METHOD FOR TREATING IDH1 INHIBITOR-RESISTANT SUBJECTS” (Eli Lilly and Company, priority 2020, published 2023)
